How the values were obtained:
[1] = Liquid; for mass density: 101.33 kPa, Vibrating tube method; for speed of sound: Pulse-echo method
[2] = molar heat capacity at constant pressure; settings: 101.33 kPa, Liquid, Small sample (50 mg) DSC

CCCCCCCC(=O)OCC [ethyl octanoate]
Settings	mass density, [1] [kg/m3]	molar heat capacity at constant pressure, [2] [J/K/mol]
278.15 K	879.5	–
283.15 K	875.22	–
285.01 K	–	338
288.15 K	870.94	–
288.16 K	–	339.38
293.15 K	866.65	341.09
298.15 K	862.36	343.12
303.15 K	858.07	–
303.16 K	–	345.31
308.15 K	853.76	347.48
313.15 K	849.46	349.66
318.15 K	845.14	–
318.16 K	–	351.96
323.15 K	840.81	354.35
328.14 K	–	356.9
328.15 K	836.47	–
333.15 K	832.12	358.95
338.15 K	827.76	361.55
343.15 K	823.39	–
343.16 K	–	363.7
343.78 K	–	364.29
348.15 K	819	–
353.15 K	814.59	–
358.15 K	810.17	–

[1]
Settings	speed of sound [m/s]
292.9 K, 101320 kPa	1668.8
292.91 K, 45590 kPa	1484.7
292.91 K, 60790 kPa	1539.2
292.91 K, 75990 kPa	1590
292.91 K, 91180 kPa	1638.3
292.92 K, 15200 kPa	1359
292.92 K, 30390 kPa	1426.7
292.94 K, 100 kPa	1281.8
298.2 K, 45590 kPa	1468.7
298.2 K, 60790 kPa	1523.7
298.2 K, 75990 kPa	1575
298.2 K, 91180 kPa	1623.9
298.21 K, 30390 kPa	1407.9
298.21 K, 101320 kPa	1654.1
298.22 K, 100 kPa	1261.5
298.22 K, 15200 kPa	1340.8
303.13 K, 45590 kPa	1453.6
303.13 K, 60790 kPa	1509.1
303.13 K, 75990 kPa	1561.4
303.13 K, 91180 kPa	1610.1
303.13 K, 101320 kPa	1639.9
303.14 K, 15200 kPa	1324.2
303.14 K, 30390 kPa	1391.8
303.2 K, 100 kPa	1242.5
308.11 K, 15200 kPa	1307.5
308.11 K, 30390 kPa	1376.3
308.11 K, 45590 kPa	1438.7
308.11 K, 60790 kPa	1494.9
308.11 K, 75990 kPa	1547.2
308.11 K, 91180 kPa	1596.5
308.11 K, 101320 kPa	1627.7
308.17 K, 100 kPa	1223.6
313.09 K, 60800 kPa	1480.5
313.09 K, 91180 kPa	1582.8
313.1 K, 75990 kPa	1533
313.1 K, 101320 kPa	1614.8
313.11 K, 15200 kPa	1290.2
313.11 K, 30390 kPa	1360.2
313.11 K, 45590 kPa	1423.1
313.15 K, 100 kPa	1205
318.24 K, 30390 kPa	1343.9
318.26 K, 15200 kPa	1273
318.26 K, 45590 kPa	1407.4
318.26 K, 60800 kPa	1466
318.26 K, 75990 kPa	1519.4
318.26 K, 91180 kPa	1569.6
318.27 K, 101320 kPa	1601.6
318.32 K, 100 kPa	1185.7

CCCCCCCCCC(=O)OCC [ethyl decanoate]
Settings	mass density, [1] [kg/m3]	molar heat capacity at constant pressure, [2] [J/K/mol]
283.15 K	872.11	–
286.16 K	–	397.73
288.15 K	868.06	398.53
293.15 K	864	400.88
298.15 K	859.94	403.34
303.15 K	855.88	–
303.16 K	–	405.67
308.14 K	851.82	–
308.16 K	–	408.17
313.14 K	847.75	–
313.16 K	–	410.93
318.15 K	843.68	413.64
323.15 K	839.6	416.52
328.15 K	835.52	–
328.16 K	–	419.55
333.14 K	–	422.31
333.15 K	831.43	–
338.14 K	827.33	–
338.15 K	–	425.46
341.11 K	–	427.36
343.15 K	823.23	–
348.15 K	819.11	–
353.14 K	814.99	–

[1]
Settings	speed of sound [m/s]
292.9 K, 30390 kPa	1453.5
292.9 K, 45590 kPa	1511.7
292.9 K, 60790 kPa	1565.9
292.9 K, 75990 kPa	1616.7
292.9 K, 101320 kPa	1693.9
292.91 K, 15200 kPa	1389.4
292.91 K, 91180 kPa	1664.3
292.92 K, 100 kPa	1313.8
298.17 K, 30390 kPa	1436.1
298.17 K, 45590 kPa	1494.9
298.17 K, 60790 kPa	1549.4
298.17 K, 75990 kPa	1601.3
298.17 K, 91180 kPa	1648.6
298.17 K, 101320 kPa	1678.8
298.18 K, 100 kPa	1293.9
298.18 K, 15200 kPa	1370.6
303.16 K, 100 kPa	1275.2
303.16 K, 30390 kPa	1419.1
303.16 K, 45590 kPa	1479.6
303.16 K, 60790 kPa	1534.7
303.16 K, 75990 kPa	1586.9
303.16 K, 91180 kPa	1635
303.16 K, 101320 kPa	1665.9
303.17 K, 15200 kPa	1353.1
308.13 K, 45590 kPa	1464.6
308.13 K, 75990 kPa	1572.1
308.13 K, 101320 kPa	1652.9
308.14 K, 100 kPa	1256.8
308.14 K, 15200 kPa	1335.4
308.14 K, 30390 kPa	1403
308.14 K, 60790 kPa	1520.1
308.14 K, 91180 kPa	1621.8
313.09 K, 45590 kPa	1449.8
313.09 K, 75990 kPa	1559.2
313.09 K, 91180 kPa	1608.6
313.09 K, 101320 kPa	1639
313.1 K, 30390 kPa	1387.5
313.1 K, 60790 kPa	1506.2
313.11 K, 100 kPa	1238.5
313.11 K, 15200 kPa	1318.7
318.26 K, 75990 kPa	1544.9
318.26 K, 91180 kPa	1594.7
318.26 K, 101320 kPa	1626.5
318.27 K, 15200 kPa	1301.6
318.27 K, 30390 kPa	1371.7
318.27 K, 45590 kPa	1434.9
318.27 K, 60790 kPa	1491.6
318.28 K, 100 kPa	1219.7

Source: the NIST ThermoML archive (doi:10.1021/je400157s)
